Several values for one entry are separate records, joined by “and”; a condition that tells them apart may be missing. Equal entries are not always repeated.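 Each compound was tested at five concentrations against cells in 96-well plates for 48 hours. The concentration for 50% growth inhibition is given as GI50. At the TGI there is no net growth.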
Test system: CCRF-CEM leukemia
Assay: DTP human tumour cell line panel, 48 h

SMILES	GI50	TGI
Cc1cc(NN=C(c2ccc(O)cc2)c2ccc(O)cc2)c([N+](=O)[O-])cc1[N+](=O)[O-]	3.33 µM	34 µM
Nc1ccccc1C#Cc1ccccc1C#Cc1cccs1	19.9 µM	70.1 µM
OCC(O)C(O)C(O)C(O)c1nnc2c(-c3ccccc3)nc3ccccc3n12 (stereo unspecified)	> 100 µM	> 100 µM
COc1ccc(/C=N/NS(=O)(=O)c2ccccc2)cc1		> 100 µM
CCOc1ccc2cc(-c3nn(CC4CCNCC4)c4ncnc(N)c34)ccc2c1	13.9 µM	34.2 µM
O=C(O)CCCCC1CCSS1 (stereo unspecified)		> 100 µM
O=C1C(=O)C2(CC1S(=O)(=O)c1ccccc1)c1ccccc1-c1ccccc12 (stereo unspecified)		58.2 µM
O=c1oc2c3ccc4ccccc4c3n(CCN3CCCCC3)c2c2ccccc12		> 91.7 µM
Cc1ccc(S(=O)C(C)C(Cl)c2ccccc2)cc1 (stereo unspecified)		> 100 µM
COc1ccccc1C(=O)N(Cc1ccccc1)c1ccc(Cl)c(C(=O)OC(C)C)c1		> 100 µM
COc1ccc(Br)c(C(=O)N2CCc3ccccc32)c1N		> 100 µM
COc1ccc(C)cc1NC(=S)C#N		> 100 µM
CCCCCC[C@H]1C(=O)O[C@H](C)[C@H](NC(=O)c2cccc(NC=O)c2OC)C(=O)O[C@@H](C)[C@@H]1OC(=O)CCC (tested in a mixture with another compound)	3.81 µM	27.2 µM
C=C1C[C@@H]2O[C@H]3[C@H]4[C@@H](CC[C@@](C)(OC(=O)CCC)[C@H]42)[C@@H](C)C(=O)O[C@@]3(C)CC[C@H]1OO	4.81 µM	14.8 µM

Test system: UACC-62 melanoma
Assay: DTP human tumour cell line panel, 48 h

SMILES	GI50	TGI
CS(=O)(=O)Nc1cc(-c2ccc3ncnc(Nc4cccc(Cl)c4)c3c2)cnc1Cl	0.202 µM	1.26 µM
Clc1ccc(CN2CCCN(Cc3ccc(Cl)cc3)C2c2cc3ccccc3c3ccccc23)cc1		36.7 µM
COc1ccc2c(c1OC)O/C(=C\c1ncc([N+](=O)[O-])n1C)C2=O	1.49 µM	3.36 µM
CC1(C)N=C(N)N=C(N)N1c1cccc(CCc2ccccc2)c1	0.49 µM	20.4 µM
O=C1Nc2ccc3c(c2/C1=C\c1cc2c(cc1Br)OCO2)OCO3	0.359 µM	3.23 µM
COc1cc2cc(Oc3cccc(NC(=O)Nc4cc(C(F)(F)F)cc(C(F)(F)F)c4)c3)c(C)nc2cc1OC	0.561 µM	2.09 µM
COc1ccc(C2NC(=S)NC3=C2CCOc2c3ccc3ccccc23)cc1 (stereo unspecified)	21.2 µM	> 100 µM
COc1cc2ncnc(Oc3cccc(NC(=O)Nc4cc(C(C)(C)C(F)(F)F)on4)c3)c2cc1OC	0.0628 µM and 0.0978 µM	1.59 µM and 1.34 µM
COc1ccc(/C=C/C(=O)c2cc3c(N)c(C(=O)Nc4ccc(OC)cc4)sc3nc2C)cc1	0.161 µM	> 50 µM
CCOC(=O)[C@@H]1CSC(CC)=C(C(=O)O)N1	> 100 µM	> 100 µM
C=C1CC[C@H]2C(C)=CC[C@H]3C(=C)C(=O)O[C@@H]3[C@@H]12		> 100 µM
COc1ccc(-c2csc(Nc3cccc(-c4csc(C)n4)c3)n2)cc1	0.249 µM	7.61 µM
COc1cc(/C=C2\SC(N3CCCCC3)=NC2=O)ccc1OCCCCCCOc1ccc(/C=C2\SC(N3CCCCC3)=NC2=O)cc1OC	16.1 µM	67.1 µM
CCCCCCCCCCCCCCCC[n+]1ccccc1	0.565 µM	2.15 µM
CCOC1Oc2ccc(C)cc2C(=O)/C1=C\Nc1ccc(S(N)(=O)=O)cc1 (stereo unspecified)	12.5 µM	38.2 µM
Cc1cc(NN=C(c2ccc(O)cc2)c2ccc(O)cc2)c([N+](=O)[O-])cc1[N+](=O)[O-]	4.77 µM	19.3 µM
Nc1ccccc1C#Cc1ccccc1C#Cc1cccs1	13.8 µM	28.6 µM
OCC(O)C(O)C(O)C(O)c1nnc2c(-c3ccccc3)nc3ccccc3n12 (stereo unspecified)	> 100 µM	> 100 µM
COc1ccc(/C=N/NS(=O)(=O)c2ccccc2)cc1		> 100 µM
CCOc1ccc2cc(-c3nn(CC4CCNCC4)c4ncnc(N)c34)ccc2c1	16.9 µM	32.1 µM
O=C1C(=O)C2(CC1S(=O)(=O)c1ccccc1)c1ccccc1-c1ccccc12 (stereo unspecified)		31.9 µM
O=c1oc2c3ccc4ccccc4c3n(CCN3CCCCC3)c2c2ccccc12		> 78.8 µM
Cc1ccc(S(=O)C(C)C(Cl)c2ccccc2)cc1 (stereo unspecified)		> 100 µM
COc1ccccc1C(=O)N(Cc1ccccc1)c1ccc(Cl)c(C(=O)OC(C)C)c1		> 100 µM
OCCN(CO)CO		> 100 µM
COc1ccc(Br)c(C(=O)N2CCc3ccccc32)c1N		> 100 µM
COc1ccc(C)cc1NC(=S)C#N		> 100 µM
CCCCCC[C@H]1C(=O)O[C@H](C)[C@H](NC(=O)c2cccc(NC=O)c2OC)C(=O)O[C@@H](C)[C@@H]1OC(=O)CCC (tested in a mixture with another compound)	6.54 µM	21.2 µM

Test system: SK-OV-3 ovarian
Assay: DTP human tumour cell line panel, 48 h

SMILES	GI50	TGI
CS(=O)(=O)Nc1cc(-c2ccc3ncnc(Nc4cccc(Cl)c4)c3c2)cnc1Cl	0.262 µM	1.58 µM
CN(C)c1ccc(C(O)C2=CC(=O)c3ccccc3C2=O)cc1 (stereo unspecified)	3.07 µM	15.5 µM
Clc1ccc(CN2CCCN(Cc3ccc(Cl)cc3)C2c2cc3ccccc3c3ccccc23)cc1		> 100 µM
COc1ccc2c(c1OC)O/C(=C\c1ncc([N+](=O)[O-])n1C)C2=O	2.71 µM	9.1 µM
CC1(C)N=C(N)N=C(N)N1c1cccc(CCc2ccccc2)c1	5.5 µM	> 100 µM
O=C1Nc2ccc3c(c2/C1=C\c1cc2c(cc1Br)OCO2)OCO3	0.512 µM	1.89 µM
COc1cc2cc(Oc3cccc(NC(=O)Nc4cc(C(F)(F)F)cc(C(F)(F)F)c4)c3)c(C)nc2cc1OC	1.71 µM	3.47 µM
COc1ccc(C2NC(=S)NC3=C2CCOc2c3ccc3ccccc23)cc1 (stereo unspecified)	> 100 µM	> 100 µM
COc1cc2ncnc(Oc3cccc(NC(=O)Nc4cc(C(C)(C)C(F)(F)F)on4)c3)c2cc1OC	0.612 µM and 0.962 µM	3.52 µM and 4.82 µM
COc1ccc(/C=C/C(=O)c2cc3c(N)c(C(=O)Nc4ccc(OC)cc4)sc3nc2C)cc1	0.215 µM	> 50 µM
CCOC(=O)[C@@H]1CSC(CC)=C(C(=O)O)N1	> 100 µM	> 100 µM
C=C1CC[C@H]2C(C)=CC[C@H]3C(=C)C(=O)O[C@@H]3[C@@H]12		> 100 µM
COc1ccc(-c2csc(Nc3cccc(-c4csc(C)n4)c3)n2)cc1	2.17 µM	> 50 µM
COc1cc(/C=C2\SC(N3CCCCC3)=NC2=O)ccc1OCCCCCCOc1ccc(/C=C2\SC(N3CCCCC3)=NC2=O)cc1OC	4.91 µM	17.4 µM
CCCCCCCCCCCCCCCC[n+]1ccccc1	1.03 µM and 0.692 µM	2.5 µM and 2.72 µM
CCOC1Oc2ccc(C)cc2C(=O)/C1=C\Nc1ccc(S(N)(=O)=O)cc1 (stereo unspecified)	17.7 µM	> 50 µM
Cc1cc(NN=C(c2ccc(O)cc2)c2ccc(O)cc2)c([N+](=O)[O-])cc1[N+](=O)[O-]	2.98 µM	19.9 µM
Nc1ccccc1C#Cc1ccccc1C#Cc1cccs1	32.7 µM	> 100 µM
OCC(O)C(O)C(O)C(O)c1nnc2c(-c3ccccc3)nc3ccccc3n12 (stereo unspecified)	> 100 µM	> 100 µM
COc1ccc(/C=N/NS(=O)(=O)c2ccccc2)cc1		> 100 µM
CCOc1ccc2cc(-c3nn(CC4CCNCC4)c4ncnc(N)c34)ccc2c1	17.3 µM	39.3 µM
O=C1C(=O)C2(CC1S(=O)(=O)c1ccccc1)c1ccccc1-c1ccccc12 (stereo unspecified)		> 100 µM
O=c1oc2c3ccc4ccccc4c3n(CCN3CCCCC3)c2c2ccccc12		> 78.5 µM
Cc1ccc(S(=O)C(C)C(Cl)c2ccccc2)cc1 (stereo unspecified)		> 100 µM
COc1ccccc1C(=O)N(Cc1ccccc1)c1ccc(Cl)c(C(=O)OC(C)C)c1		> 91.7 µM
OCCN(CO)CO		> 100 µM
COc1ccc(Br)c(C(=O)N2CCc3ccccc32)c1N		80.2 µM
COc1ccc(C)cc1NC(=S)C#N		> 100 µM
CCCCCC[C@H]1C(=O)O[C@H](C)[C@H](NC(=O)c2cccc(NC=O)c2OC)C(=O)O[C@@H](C)[C@@H]1OC(=O)CCC (tested in a mixture with another compound)	24.2 µM	66.1 µM
C=C1C[C@@H]2O[C@H]3[C@H]4[C@@H](CC[C@@](C)(OC(=O)CCC)[C@H]42)[C@@H](C)C(=O)O[C@@]3(C)CC[C@H]1OO	> 100 µM	> 100 µM

Reference: PubChem BioAssay (NCI)
